≈ marks a conversion by molar mass, not a printed value.
Columns and labels:
UO-31 [1] = test: Cytotoxicity against human UO31 cells assessed as reduction in cell viability after 24 hrs by MTT assay; type: functional, cell-based; details: UO-31, 24 h
MCF7 = test: Cytotoxicity against human MCF7 cells assessed as reduction in cell viability after 24 hrs by MTT assay; type: functional, cell-based; details: MCF7, 24 h
RXF 393 = test: Growth inhibition of human RXF393 cells at 10^-5 M incubated for 48 hrs by sulforhodamine B assay; type: functional; details: RXF 393, 48 h, read-out: GI
HL-60(TB) = test: Growth inhibition of human HL-60(TB) cells at 10^-5 M incubated for 48 hrs by sulforhodamine B assay; type: functional; details: HL-60, 48 h, read-out: GI
OVCAR-8 = test: Growth inhibition of human OVCAR8 cells at 10^-5 M incubated for 48 hrs by sulforhodamine B assay; type: functional; details: OVCAR-8, 48 h, read-out: GI
NCI-H460 = test: Growth inhibition of human NCI-H460 cells at 10^-5 M incubated for 48 hrs by sulforhodamine B assay; type: functional; details: NCI-H460, 48 h, read-out: GI
[2] = target: NAD-dependent protein deacetylase sirtuin-2 (Homo sapiens) (UniProt Q8IXJ6); test: (§1) Inhibition of SIRT2 (unknown origin) assessed as increase in alpha-tubulin acetylation after 2 hrs by alpha-tubulin acetyl-K40 assay
[3] = target: T1, NAD-dependent protein deacetylase sirtuin-2 (Homo sapiens, UniProt Q8IXJ6); test: as §1
T1 sequence (Q8IXJ6 whole entry): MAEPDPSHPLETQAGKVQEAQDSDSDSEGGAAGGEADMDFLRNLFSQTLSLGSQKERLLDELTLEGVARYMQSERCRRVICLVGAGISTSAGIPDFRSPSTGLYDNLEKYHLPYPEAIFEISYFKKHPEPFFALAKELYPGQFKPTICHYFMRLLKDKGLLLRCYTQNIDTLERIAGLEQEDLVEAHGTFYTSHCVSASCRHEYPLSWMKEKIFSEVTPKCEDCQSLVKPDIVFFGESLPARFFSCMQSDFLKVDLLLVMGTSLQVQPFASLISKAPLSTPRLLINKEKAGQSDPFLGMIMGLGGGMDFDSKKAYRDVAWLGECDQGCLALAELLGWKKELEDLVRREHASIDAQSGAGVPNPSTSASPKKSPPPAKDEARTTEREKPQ

UO-31 [4] = test: Growth inhibition of human UO31 cells at 10^-5 M incubated for 48 hrs by sulforhodamine B assay; type: functional; details: UO-31, 48 h, read-out: GI
SK-MEL-2 = test: Growth inhibition of human SK-MEL-2 cells at 10^-5 M incubated for 48 hrs by sulforhodamine B assay; type: functional; details: SK-MEL-2, 48 h, read-out: GI
NCI/ADR-RES = test: Growth inhibition of human NCI/ADR-RES cells at 10^-5 M incubated for 48 hrs by sulforhodamine B assay; type: functional; details: read-out: GI
KM12 = test: Growth inhibition of human KM12 cells at 10^-5 M incubated for 48 hrs by sulforhodamine B assay; type: functional; details: KM12, 48 h, read-out: GI
HCT-116 = test: Growth inhibition of human HCT116 cells at 10^-5 M incubated for 48 hrs by sulforhodamine B assay; type: functional; details: HCT-116, 48 h, read-out: GI
[5] = target: NAD-dependent protein deacetylase sirtuin-1 (Homo sapiens, UniProt Q96EB6); test: Inhibition of SIRT1 (unknown origin) using fluorogenic substrate assessed as deacetylase activity incubated for 45 mins by fluorescence assay
HOP-92 = test: Growth inhibition of human HOP92 cells at 10^-5 M incubated for 48 hrs by sulforhodamine B assay; type: functional; details: HOP-92, 48 h, read-out: GI
SF-268 = test: Growth inhibition of human SF268 cells at 10^-5 M incubated for 48 hrs by sulforhodamine B assay; type: functional; details: SF-268, 48 h, read-out: GI
[6] = target: NAD-dependent protein deacetylase sirtuin-3, mitochondrial (Homo sapiens, UniProt Q9NTG7); test: Inhibition of SIRT3 (unknown origin) using fluorogenic substrate assessed as deacetylase activity incubated for 45 mins by fluorescence assay
MDA-MB-231 = test: Growth inhibition of human MDA-MB-231 cells at 10^-5 M incubated for 48 hrs by sulforhodamine B assay; type: functional; details: MDA-MB-231, 48 h, read-out: GI
NCI-H23 = test: Growth inhibition of human NCI-H23 cells at 10^-5 M incubated for 48 hrs by sulforhodamine B assay; type: functional; details: NCI-H23, 48 h, read-out: GI
U-251 = test: Growth inhibition of human U251 cells at 10^-5 M incubated for 48 hrs by sulforhodamine B assay; type: functional; details: U-251, 48 h, read-out: GI
M14 = test: Growth inhibition of human M14 cells at 10^-5 M incubated for 48 hrs by sulforhodamine B assay; type: functional; details: M14, 48 h, read-out: GI
SK-OV-3 = test: Growth inhibition of human SKOV3 cells at 10^-5 M incubated for 48 hrs by sulforhodamine B assay; type: functional; details: SK-OV-3, 48 h, read-out: GI
[7] = target: T1, NAD-dependent protein deacetylase sirtuin-2; test: Inhibition of SIRT2 (unknown origin) using fluorogenic substrate assessed as deacetylase activity incubated for 45 mins by fluorescence assay
HOP-62 = test: Growth inhibition of human HOP62 cells at 10^-5 M incubated for 48 hrs by sulforhodamine B assay; type: functional; details: HOP-62, 48 h, read-out: GI
K562 = test: Growth inhibition of human K562 cells at 10^-5 M incubated for 48 hrs by sulforhodamine B assay; type: functional; details: K562, 48 h, read-out: GI
SK-MEL-5 = test: Growth inhibition of human SK-MEL-5 cells at 10^-5 M incubated for 48 hrs by sulforhodamine B assay; type: functional; details: SK-MEL-5, 48 h, read-out: GI
786-0 = test: Growth inhibition of human 786-0 cells at 10^-5 M incubated for 48 hrs by sulforhodamine B assay; type: functional; details: 786-0, 48 h, read-out: GI

Chain of NAD-dependent protein deacetylase sirtuin-3, mitochondrial (Q9NTG7 whole entry): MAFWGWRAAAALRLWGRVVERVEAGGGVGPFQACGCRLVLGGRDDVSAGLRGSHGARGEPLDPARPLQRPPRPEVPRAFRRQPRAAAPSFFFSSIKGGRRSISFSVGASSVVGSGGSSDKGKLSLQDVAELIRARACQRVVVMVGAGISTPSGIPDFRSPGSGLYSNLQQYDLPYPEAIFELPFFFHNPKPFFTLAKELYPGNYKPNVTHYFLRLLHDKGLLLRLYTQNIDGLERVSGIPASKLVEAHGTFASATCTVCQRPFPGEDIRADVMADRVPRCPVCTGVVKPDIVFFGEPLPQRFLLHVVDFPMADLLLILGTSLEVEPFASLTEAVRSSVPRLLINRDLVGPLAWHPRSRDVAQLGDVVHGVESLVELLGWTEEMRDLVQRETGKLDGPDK
Chain of NAD-dependent protein deacetylase sirtuin-1 (Q96EB6 whole entry): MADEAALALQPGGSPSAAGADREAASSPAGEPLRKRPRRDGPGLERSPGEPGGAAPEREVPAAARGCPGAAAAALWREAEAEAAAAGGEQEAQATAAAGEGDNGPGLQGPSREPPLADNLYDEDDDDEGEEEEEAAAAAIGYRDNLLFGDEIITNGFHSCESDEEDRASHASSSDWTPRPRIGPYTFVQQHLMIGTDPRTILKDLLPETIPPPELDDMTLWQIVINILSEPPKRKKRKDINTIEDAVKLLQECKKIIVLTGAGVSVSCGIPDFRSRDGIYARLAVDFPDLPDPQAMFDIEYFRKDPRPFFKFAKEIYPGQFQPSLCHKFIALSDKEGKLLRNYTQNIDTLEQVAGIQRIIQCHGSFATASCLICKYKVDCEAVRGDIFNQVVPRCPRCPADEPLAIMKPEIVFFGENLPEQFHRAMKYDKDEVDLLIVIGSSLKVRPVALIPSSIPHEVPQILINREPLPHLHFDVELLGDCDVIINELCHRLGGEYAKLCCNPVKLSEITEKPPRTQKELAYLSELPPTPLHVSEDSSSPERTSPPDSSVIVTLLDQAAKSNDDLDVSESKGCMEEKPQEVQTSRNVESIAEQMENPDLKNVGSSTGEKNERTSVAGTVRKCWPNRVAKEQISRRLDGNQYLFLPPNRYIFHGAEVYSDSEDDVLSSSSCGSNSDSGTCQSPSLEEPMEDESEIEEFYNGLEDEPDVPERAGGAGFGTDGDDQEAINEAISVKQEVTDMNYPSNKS

Compound | IC50 (UO-31 [1]) | IC50 (MCF7) | inhibition of growth at 10 µM (RXF 393) | inhibition of growth at 10 µM (HL-60(TB)) | inhibition of growth at 10 µM (OVCAR-8) | inhibition of growth at 10 µM (NCI-H460) | inhibition of growth at 10 µM (UO-31 [4]) | inhibition of growth at 10 µM (SK-MEL-2) | inhibition of growth at 10 µM (NCI/ADR-RES) | inhibition of growth at 10 µM (KM12) | inhibition of growth at 10 µM (HCT-116) | inhibition of growth at 10 µM (HOP-92) | inhibition of growth at 10 µM (SF-268) | inhibition of growth at 10 µM (MDA-MB-231) | inhibition of growth at 10 µM (NCI-H23) | inhibition of growth at 10 µM (U-251) | inhibition of growth at 10 µM (M14) | inhibition of growth at 10 µM (SK-OV-3) | IC50 [7] | inhibition of growth at 10 µM (HOP-62) | also measured
O=C1CSC2=Nc3c(sc4ccc(Cl)cc34)C(c3ccc4ccccc4c3)N12 (stereo unspecified) | 12.4 µg/mL (≈ 29.5 µM) | 2.34 µg/mL (≈ 5.56 µM) | -5.09% | -2.82% | 3.28% | -1.49% | 37.4% | -6.76% | -1.46% | 3.7% | -7.67% | 6.48% | 10.3% | 19.7% | 14.1% | -7.94% | 6.91% | 10.3% | 4.99 µM | 6.69% | inhibition [2]: Dose-dependent effect; IC50 [3]: 76.1 µM; IC50 [5]: 4.3 µM; IC50 [6]: 48.7 µM; inhibition of growth at 10 µM (K562): 7.65%; inhibition of growth at 10 µM (SK-MEL-5): 2.92%; inhibition of growth at 10 µM (786-0): 2.84%
Cc1cc(C)n(C2=Nc3c(sc4ccc(Cl)cc34)C(c3cccc([N+](=O)[O-])c3)N2)n1 (stereo unspecified) | 9.62 µg/mL (≈ 22 µM) | 1.67 µg/mL (≈ 3.81 µM) | -9.71% | -2.76% | 0.5% | 7.9% | 43.7% | -5.1% | -2.52% | 2.61% | 5.98% | -4.25% | 1.15% | 18.8% | 23% | -3.95% | -4.17% | 11.4% | 19.3 µM | 18.2% | inhibition of growth at 10 µM (K562): 4.14%; inhibition of growth at 10 µM (SK-MEL-5): 4.68%; inhibition of growth at 10 µM (786-0): -6.44%
NC(=O)CSC1=Nc2c(sc3ccc(Cl)cc23)C(c2cccc([N+](=O)[O-])c2)N1 (stereo unspecified) | 46.8 µg/mL (≈ 108 µM) | 5.06 µg/mL (≈ 11.7 µM) | -12.1% | -2.94% | -3.56% | 19.3% | 34.3% | -13% | -4.88% | -8.1% | 6.66% | -21.6% | -4.2% | 7.36% | 4.2% | -1.2% | -2.31% | 4.62% | 17 µM | 6.5% | inhibition of growth at 10 µM (K562): 2.53%; inhibition of growth at 10 µM (SK-MEL-5): 4.8%; inhibition of growth at 10 µM (786-0): -0.38%
O=[N+]([O-])c1cccc(C2c3sc4ccc(Cl)cc4c3N=C3NN=CN32)c1 (stereo unspecified) | 26.2 µg/mL (≈ 68.4 µM) | 9.8 µg/mL (≈ 25.5 µM) | 1.71% | -6.74% | 1.42% | 2.77% | 23% | -3.53% | 6.44% | 3.7% | 3.22% | -7.25% | 4.21% | 5.59% | 17.7% | -0.13% | -2.02% | -4.54% | 6.64 µM | 10.8% | inhibition of growth at 10 µM (K562): -4.99%; inhibition of growth at 10 µM (SK-MEL-5): 5.85%; inhibition of growth at 10 µM (786-0): 5.64%

From ChEMBL document CHEMBL4414672, “Synthesis of certain benzothieno[3,2-d]pyrimidine derivatives as a selective SIRT2 inhibitors” (Eur J Med Chem, 2020)
